Assay: Syn/anti-isomerization of the Mannich salt via retro-Mannich/Mannich reaction in DMSO-d6 solution at 300 K, 1H NMR monitoring
Type: physicochemical
Conditions: for cis-isomer [%] / trans-isomer [%]: DMSO-d6, 300 K, 1H NMR
Procedure: Electron-withdrawing substituents in the aldehyde component of formula (IV) reduced the retro-Mannich tendency. The 1H NMR monitoring of the syn/anti-isomerization of a syn-Mannich salt of formula (III) via retro-Mannich reaction at 300 K in DMSO-d6 solution can be seen in Example 28.
Syn/anti-isomerization of the Mannich base mandelate from […] in DMSO-d^6 solution at 300K. Kinetics and equilibrium location of the retro-Mannich/Mannich reactions:
8 mg of the product from Example 27 were dissolved in DMSO-d^6 as rapidly as possible in a ^1H NMR tube at room temperature. The sample was immediately introduced into the NMR instrument (400 MHz, 300.0 K), shimmed rapidly and analyzed. The first spectrum was obtained 3.5 min after the sample dissolution. […] Further spectra of the solution were each obtained at an interval of 3–4 min. […] The variation can be seen from the graphics and the table of the appendix. 69 min after dissolution of the Mannich salt, the NMR monitoring was aborted at a syn/anti ratio of 50:50. A repeat measurement 20.5 hours after dissolution of the Mannich salt indicated a syn/anti ratio of 41.5:58.5. After a total of 44.5 hours, this ratio was unchanged. The thermodynamic equilibrium of the two isomers is thus achieved in less than 20 h and the anti-isomer is preferred in solution. In contrast, the four-component coupling (Example 27) results in the crystallization of virtually pure syn-isomer, apparently owing to lower solubility. Even the spectrum obtained 3.5 min after sample dissolution indicates (in addition to the syn- and anti-isomers of the Mannich salt) the presence of the retro-Mannich products 2-pyridylmethyl phenyl ketone (formula VI; singlet at δ is 4.53 ppm) and tolylaldehyde (or corresponding imine) (formula IV or X, singlets at δ is 2.40 and 9.12 ppm) in small but significant amounts. The best fitting curve between the measurement points of the graph was obtained by 3rd order polynomial formation.

[1] = 3.5 min after sample dissolution
[2] = 6.5 min after sample dissolution
[3] = 10.5 min after sample dissolution
[4] = 13.5 min after sample dissolution
[5] = 17.5 min after sample dissolution
[6] = 20.5 min after sample dissolution
[7] = 24.5 min after sample dissolution
[8] = 27.5 min after sample dissolution
[9] = 31.5 min after sample dissolution
[10] = 34.5 min after sample dissolution
[11] = 37.5 min after sample dissolution
[12] = 41.5 min after sample dissolution
[13] = 44.5 min after sample dissolution
[14] = 48.5 min after sample dissolution
[15] = 51.5 min after sample dissolution
[16] = 55.5 min after sample dissolution
[17] = 58.5 min after sample dissolution
[18] = 61.5 min after sample dissolution
[19] = 65.5 min after sample dissolution
[20] = 68.5 min after sample dissolution
[21] = 1230 min after sample dissolution
[22] = 2670 min after sample dissolution

cis-isomer [%] [1]: 95.1% | trans-isomer [%] [1]: 4.9% | cis-isomer [%] [2]: 92.5% | trans-isomer [%] [2]: 7.5% | cis-isomer [%] [3]: 89.0% | trans-isomer [%] [3]: 11.0% | cis-isomer [%] [4]: 85.0% | trans-isomer [%] [4]: 15.0% | cis-isomer [%] [5]: 81.7% | trans-isomer [%] [5]: 18.3% | cis-isomer [%] [6]: 77.3% | trans-isomer [%] [6]: 22.7% | cis-isomer [%] [7]: 76.8% | trans-isomer [%] [7]: 23.2% | cis-isomer [%] [8]: 71.8% | trans-isomer [%] [8]: 28.2% | cis-isomer [%] [9]: 68.0% | trans-isomer [%] [9]: 32.0% | cis-isomer [%] [10]: 66.2% | trans-isomer [%] [10]: 33.8% | cis-isomer [%] [11]: 63.8% | trans-isomer [%] [11]: 36.2% | cis-isomer [%] [12]: 61.7% | trans-isomer [%] [12]: 38.3% | cis-isomer [%] [13]: 60.1% | trans-isomer [%] [13]: 39.9% | cis-isomer [%] [14]: 58.7% | trans-isomer [%] [14]: 41.3% | cis-isomer [%] [15]: 56.8% | trans-isomer [%] [15]: 43.2% | cis-isomer [%] [16]: 54.5% | trans-isomer [%] [16]: 45.5% | cis-isomer [%] [17]: 53.6% | trans-isomer [%] [17]: 46.4% | cis-isomer [%] [18]: 52.9% | trans-isomer [%] [18]: 47.1% | cis-isomer [%] [19]: 52.0% | trans-isomer [%] [19]: 48.0% | cis-isomer [%] [20]: 50.5% | trans-isomer [%] [20]: 49.5% | cis-isomer [%] [21]: 41.5% | trans-isomer [%] [21]: 58.5% | cis-isomer [%] [22]: 41.6% | trans-isomer [%] [22]: 58.4% | syn/anti ratio of the Mannich salt in solution, compared with 20.5 hours (DMSO-d6, 300.0 K, after a total of 44.5 hours): unchanged | time to thermodynamic equilibrium of syn- and anti-isomers (DMSO-d6 solution, 300 K): less than 20 h
Compound: Cc1ccc(C(Nc2ccccn2)C(C(=O)c2ccccc2)c2ccccn2)cc1.O=C(O)C(O)c1ccccc1 (stereo not shown) [Example 27]

From patent US7161008B2, “Optically active β-aminoketones, optically active 1,3-amino alcohols and processes for preparing them” (Sanofi - Aventis Deutschland GmbH, priority 2002, dated 2007)
